We go through 14 compounds from patent US11492348B2, “Tri-substituted aryl and heteroaryl derivatives as modulators of PI3-kinase and autophagy pathways” (Neuropore Therapies, Inc., priority 2018, dated 2022).

Usually IC50 stands for the concentration at which inhibition is half-maximal.

Each structure is given as a SMILES string.

Sequence of PI3Kα (P42336 whole entry): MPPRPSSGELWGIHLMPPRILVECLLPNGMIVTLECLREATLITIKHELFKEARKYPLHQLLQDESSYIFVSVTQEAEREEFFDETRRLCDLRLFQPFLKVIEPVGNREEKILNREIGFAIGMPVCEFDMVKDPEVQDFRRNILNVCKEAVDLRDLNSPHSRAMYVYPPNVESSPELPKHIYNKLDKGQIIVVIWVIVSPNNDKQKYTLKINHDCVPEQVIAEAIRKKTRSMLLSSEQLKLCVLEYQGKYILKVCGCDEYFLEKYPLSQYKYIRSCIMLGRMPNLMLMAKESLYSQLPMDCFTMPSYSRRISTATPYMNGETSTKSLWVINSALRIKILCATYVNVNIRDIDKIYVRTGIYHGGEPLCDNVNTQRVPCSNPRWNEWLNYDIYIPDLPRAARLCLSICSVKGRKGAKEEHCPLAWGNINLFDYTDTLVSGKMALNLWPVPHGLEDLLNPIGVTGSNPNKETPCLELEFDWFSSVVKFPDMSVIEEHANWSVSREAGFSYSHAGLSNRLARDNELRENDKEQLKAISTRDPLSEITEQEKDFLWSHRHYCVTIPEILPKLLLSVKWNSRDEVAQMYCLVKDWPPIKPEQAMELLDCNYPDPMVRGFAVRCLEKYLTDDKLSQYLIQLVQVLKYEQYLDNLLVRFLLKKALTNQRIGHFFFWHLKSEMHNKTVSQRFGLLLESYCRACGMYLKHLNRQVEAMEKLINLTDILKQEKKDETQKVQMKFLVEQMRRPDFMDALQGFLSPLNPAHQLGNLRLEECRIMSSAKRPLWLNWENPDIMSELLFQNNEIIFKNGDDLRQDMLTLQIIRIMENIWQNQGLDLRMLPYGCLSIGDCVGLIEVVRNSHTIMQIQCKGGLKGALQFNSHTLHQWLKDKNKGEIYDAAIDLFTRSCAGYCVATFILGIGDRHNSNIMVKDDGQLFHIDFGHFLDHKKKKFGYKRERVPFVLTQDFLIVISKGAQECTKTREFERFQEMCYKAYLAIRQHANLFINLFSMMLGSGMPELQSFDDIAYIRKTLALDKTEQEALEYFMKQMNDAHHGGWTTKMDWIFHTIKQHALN
Sequence of PI3Kα (P27986 whole entry partner): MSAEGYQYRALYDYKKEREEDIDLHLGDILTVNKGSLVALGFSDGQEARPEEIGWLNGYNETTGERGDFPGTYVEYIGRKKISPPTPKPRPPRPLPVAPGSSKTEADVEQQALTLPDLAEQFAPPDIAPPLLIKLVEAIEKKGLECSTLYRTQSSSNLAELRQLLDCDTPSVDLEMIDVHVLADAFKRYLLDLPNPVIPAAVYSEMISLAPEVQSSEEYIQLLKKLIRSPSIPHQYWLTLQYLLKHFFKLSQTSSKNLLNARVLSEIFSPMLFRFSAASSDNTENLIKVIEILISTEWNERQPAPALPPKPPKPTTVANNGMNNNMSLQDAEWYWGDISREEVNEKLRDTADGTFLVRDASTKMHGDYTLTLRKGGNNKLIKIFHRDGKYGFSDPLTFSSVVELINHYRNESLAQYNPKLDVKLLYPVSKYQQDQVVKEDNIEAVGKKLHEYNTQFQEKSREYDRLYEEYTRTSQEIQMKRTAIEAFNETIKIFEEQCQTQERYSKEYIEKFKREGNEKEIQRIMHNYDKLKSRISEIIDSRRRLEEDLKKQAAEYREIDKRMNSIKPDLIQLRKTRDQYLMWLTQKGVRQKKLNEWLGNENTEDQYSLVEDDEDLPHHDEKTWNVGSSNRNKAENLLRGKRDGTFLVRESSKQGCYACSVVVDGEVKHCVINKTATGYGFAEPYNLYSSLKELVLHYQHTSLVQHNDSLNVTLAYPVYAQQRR

The target of one assay is PI3Kα (Homo sapiens (Human), UniProt P42336). Put plainly: Inhibition of PI3Kα (ADP-Glo kinase activity assay, ATP to ADP conversion). Format: biochemical. The following applies: 25 μM PIP2:PS, 60 μM ATP, 30 min reaction, luminescence. How it is done:
Quantification of ATP to ADP conversion as a measure of PI3Kα activity. Active PI3Kα (Life Technologies), in the presence or absence of PI3Kα inhibitor, was reacted with PIP2:PS (Life Technologies), a substrate specifically optimized for use with Class I PI3 kinases, and ultrapure ATP (Promega). The conversion of ATP to ADP by PI3Kα was measured as luminescence signal via Promega ADP-Glo kinase activity assay. Assay was validated using published PI3Kα inhibitors LY294002, PI-103, BYL719, GDC0198 and also DMSO vehicle control.
Compounds were prepared at 100× final concentration as a 12-point, 1:3 serial-dilution in DMSO series, with DMSO control as 12th point. Compound was then diluted in (25 mM HEPES pH 7.5, 1 mM EGTA, 0.3% CHAPS) prior to addition to PI3Kα. Active PI3Kα diluted to 0.24 ng/μL (1.1 nM) in (50 mM HEPES pH 7.5, 6 mM MgCl2, 1 mM EGTA, 200 mM NaCl, 0.03% CHAPS, 8 mM DTT) was incubated with compound for 0 hr and 3 hr prior to the start of the reaction. 25 μM PIP2:PS and 60 μM ATP were diluted from stock in (25 mM HEPES pH 7.5, 1 mM EGTA, 0.3% CHAPS) and added to initiate the PI3Kα reaction. Reaction time was 30 minutes. ATP to ADP conversion was measured in Luminescence Counts on DTX880 Plate Reader (Beckman Coulter). Compound IC50s were reported using GraphPad Prism software. Analytical method was non-linear regression, 4-parameter curve fit with bottom fit to validated PI3Kα inhibitor reference controls and no top fit (floating top).
(ADP-Glo first removes unused ATP, then detects ADP through luciferase.)
With `Nc1ncc(-c2cc(S(=O)(=O)C3CCOCC3)cc(N3CCOCC3)n2)cn1` [Compound 148, 5-(6-morpholino-4-((tetrahydro-2H-pyran-4-yl)sulfonyl)pyridin-2-yl)pyrimidin-2-amine], the “PI3Ka IC50” value was 13 nM. For the compound `Nc1ncc(-c2cc(N3CCOCC3)cc(S(=O)(=O)CC3CCC(F)(F)CC3)c2)cn1` [Compound 64, 5-(3-(((4,4-difluorocyclohexyl)methyl)sulfonyl)-5-C21H26F2N4O3Smorpholinophenyl) pyrimidin-2-amine], the “PI3Ka IC50” value turned out to be 1100 nM.

As for `CC(C)(O)CNc1ccc(S(=O)(=O)c2cc(-c3cnc(N)nc3)cc(N3CCOCC3)c2)cc1` [Compound 37, 1-((4-((3-(2-aminopyrimidin-5-yl)-5-morpholinophenyl)sulfonyl)phenyl)amino)-2-methylpropan-2-ol], the “PI3Ka IC50” value was found to be 2000 nM. Regarding `O=S(=O)(Cc1ccc(F)cc1)c1cc(-c2cccc(OC(F)(F)F)c2)cc(N2CCOCC2)c1` [Compound 46, 4-(5-((4-fluorobenzyl)sulfonyl)-3′-(trifluoromethoxy)-[1,1′-biphenyl]-3-yl)morpholine], the “PI3Ka IC50” value worked out at 19000 nM.

Take `Nc1cc(C(F)(F)F)c(-c2cc(S(=O)(=O)c3ccccc3)cc(N3CCOCC3)n2)cn1` [Compound 144, 6-morpholino-4-(phenylsulfonyl)-4′-(trifluoromethyl)-[2,3′-bipyridin]-6′-amine]: the “PI3Ka IC50” value was determined as 390 nM. In the case of `O=S(=O)(Cc1ccccc1)c1cc(-c2cnc(NC3CC3)nc2)cc(N2CCOCC2)c1` [Compound 104, 5-(3-(benzylsulfonyl)-5-morpholinophenyl)-N-cyclopropylpyrimidin-2-amine], the “PI3Ka IC50” value was 1300 nM. The same measure, in the same setting: the figure for `Nc1ncc(-c2cc(N3CCOCC3)cc(S(=O)(=O)c3cccc(C(F)(F)F)c3)c2)cn1` [Compound 7, 5-(3-morpholino-5-((3-(trifluoromethyl)phenyl)sulfonyl)phenyl) pyrimidin-2-amine] is 1800 nM; for `CC(=O)Nc1ncc(-c2cc(S(=O)(=O)c3ccccc3)cc(N3CCOCC3)n2)cn1` [Compound 145, N-(5-(6-morpholino-4-(phenylsulfonyl)pyridin-2-yl)pyrimidin-2-yl)acetamide] it is 390 nM.

On to `Nc1ncc(-c2cc(N3CCOCC3)cc(S(=O)(=O)c3ccc4ccccc4c3)c2)cn1` [Compound 9, 5-(3-morpholino-5-(naphthalen-2-ylsulfonyl)phenyl)pyrimidin-2-amine], for which the “PI3Ka IC50” value is 1500 nM. For `O=S(=O)(Cc1ccc(F)cc1)c1cc(-c2ccc3c(c2)OCCN3)cc(N2CCOCC2)c1` [Compound 45, 7-(3-((4-fluorobenzyl)sulfonyl)-5-morpholinophenyl)-3,4-dihydro-2H-benzo[b][1,4]oxazine], the “PI3Ka IC50” value was 5900 nM. Same read-out and setting: the figure for `Nc1ncc(-c2cc(N3CCOCC3)cc(S(=O)(=O)C3CN(Cc4ccc(F)cc4)C3)c2)cn1` [Compound 80, 5-(3-((1-(4-fluorobenzyl)azetidin-3-yl)sulfonyl)-5-morpholinophenyl)pyrimidin-2-amine] is 660 nM.

Take `CC(C)(C)OC(=O)N1CCC(N2CC(S(=O)(=O)c3cc(-c4cnc(N)nc4)cc(N4CCOCC4)c3)C2)CC1` [Compound 67, tert-butyl 4-(3-((3-(2-aminopyrimidin-5-yl)-5-morpholinophenyl)sulfonyl)azetidin-1-yl)piperidine-1-carboxylate]: the “PI3Ka IC50” value worked out at 800 nM.

Regarding `COc1cncc(-c2cc(N3CCOCC3)cc(S(=O)(=O)Cc3ccc(F)cc3)c2)c1` [Compound 55, 4-(3-((4-fluorobenzyl)sulfonyl)-5-(5-methoxypyridin-3-yl)phenyl)morpholine], the “PI3Ka IC50” value was determined as 12000 nM.

Still in this assay, the particulars now being: 25 μM PIP2:PS, 60 μM ATP, 30 min reaction, luminescence; read-out: PI3Ka IC50.
Turning to `Nc1ncc(-c2cc(S(=O)(=O)C3CCOc4ccccc43)cc(N3CCOCC3)n2)cn1` (single isomer, unassigned; (-)) [(−) 143, 5-(4-(chroman-4-ylsulfonyl)-6-morpholinopyridin-2-yl)pyrimidin-2-amine], the concentration for half-maximal inhibition (IC50) was determined as 1 nM.
